Laboratory results taken from patent US8138191B2, “Inhibitor compounds and cancer treatment methods” (Critical Outcome Technologies Inc., priority 2007, dated 2012).
Read-outs that look alike come from different tables or passages of the source. Values belong to the molecule of their own block, whether it stands above or below them.

What was measured:
SNB-19 = test: IC50 human glioma/astrocytoma cell lines (alamar Blue), SNB-19
U87 = test: IC50 human glioma/astrocytoma cell lines (alamar Blue), U87
[1] = system: SHP-77 human SCLC cell line tumor xenografts; test: Nude mouse model of human SCLC, SHP-77 xenografts; type: in vivo; conditions: for average number of tumors per injection site / mean tumor volume: IP on alternate days from Day 3, 31 days
Protocol: The nude mouse model of human SCLC was used to evaluate the in vivo efficacy of compounds of the present invention in comparison with several known chemotherapeutic agents. Nude mice were obtained form the National Cancer Institute and the SHP-77 human SCLC cell line was chosen for metastatic tumor xenografts. The control group consisted of 10 animals, each of which were administered bilateral thigh injections of a prescribed volume of tumor cells. There were 6 treatment groups, each containing 5 animals: COTI-2, COTI-4, COTI-219, Taxotere® (docetaxel), Cisplatin® (cis-diamminedichloroplatinum) and Tarceva® (erlotinib) The therapeutic agent was administered by intraperitoneal (IP) injection on alternate days beginning on Day 3 post tumor cell injection. Each animal in a treatment group was administered bilateral thigh injections with the same prescribed volume of tumor cells as the control animals. Treatment continued for 31 days, following which the animals were euthanized and tissues were collected for subsequent analysis.

DMS153 = test: Resistance testing over 5 generations, DMS153; type: cell-based, human; conditions: DMS153, 5 generations
Protocol: (§1) In order to evaluate the induction of resistance in vitro, compounds according to the invention were tested in head to head comparisons against conventional therapeutic agents Cisplatin® and Taxotere®. The compound designated COTI-4 (which is the subject of Applicant's co-pending U.S. provisional patent application entitled “Composition and Method for Treatment” filed Dec. 26, 2007) was also tested. The structure for COTI-4 is:
(§2) IC50 values were obtained using methods known to persons skilled in the art with two different human SCLC cell lines (DMS153 and SHP77) obtained from the National Cancer Institute. […] The procedure was repeated for a total of 5 generations. Emerging resistance was identified by increasing IC50 values in successive generations.

SHP77 = test: Resistance testing over 5 generations, SHP77; type: cell-based, human; conditions: SHP77, 5 generations
Protocol: as §1, §2

CYP2B6 [2] = biological target: T1, CYP2B6 (Homo sapiens, UniProt P20813); conditions: both, 15 min, pH 7.4
T1 sequence (P20813 1-491): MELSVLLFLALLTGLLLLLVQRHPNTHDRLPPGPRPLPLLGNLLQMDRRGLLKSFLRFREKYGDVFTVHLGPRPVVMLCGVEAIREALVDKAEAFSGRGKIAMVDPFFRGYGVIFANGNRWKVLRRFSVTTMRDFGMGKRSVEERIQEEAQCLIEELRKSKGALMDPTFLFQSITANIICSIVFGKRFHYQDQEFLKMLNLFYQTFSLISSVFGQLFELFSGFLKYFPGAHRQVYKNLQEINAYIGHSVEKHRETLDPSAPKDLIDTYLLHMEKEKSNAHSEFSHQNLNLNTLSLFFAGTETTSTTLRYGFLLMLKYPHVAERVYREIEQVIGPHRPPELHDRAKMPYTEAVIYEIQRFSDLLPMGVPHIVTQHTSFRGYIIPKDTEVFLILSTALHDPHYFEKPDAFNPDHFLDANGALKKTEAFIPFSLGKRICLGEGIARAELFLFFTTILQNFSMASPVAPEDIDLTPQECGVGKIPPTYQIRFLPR

CYP2B6 [3] = biological target: T1, CYP2B6; test: biochemical
SHP 77 cells = test: Proliferation with anti-cancer agents plus COTI-2, SHP 77; type: cell-based, human; conditions: SHP 77
DMS114 cells = test: Proliferation with anti-cancer agents plus COTI-2, DMS114; type: cell-based, human; conditions: DMS114
[4] = system: PI3K activity in SHP77 cells; test: PI3-K activity (PIP3 detection, Echelon kit), SHP77; type: cell-based, human; conditions: SHP77, 50 μM inhibitor + 250 nM COTI-2
From the text: As a negative control, an equivalent volume of DMSO was utilized. […] To measure PI3-K activity, a commercial kit was purchased from Echelon. Following the procedures recommended by the manufacturer, membrane lipids were extracted in several steps and the resulting PIP3 was immobilized to nitrocellulose and measured by its interaction with a PH-domain containing protein and HRP-conjugated antibody supplied with the kit. As an additional control in these experiments, the specific PI3-K inhibitor, LY294002 was used to inhibit PI3-K and thus stop PIP3 production.

[5] = system: NCI/DTP 60 cell line panel; conditions: NOT including DMS114 and SHP-77; cited from earlier work
U87 glioblastoma cells = test: Proliferation of U87 glioblastoma cells (alamarBlue), single agents and combinations with temsirolimus or rapamycin; type: cell-based; conditions: Homo sapiens; U87, single agent, triplicate experiments
Protocol: In vitro IC50 values were obtained for combinations of compounds of the present invention with temsirolimus or rapamycin in the treatment of U87 glioblastoma cells. Temsirolimus and rapamycin both inhibit proliferation of human U87 glioblastoma cells, as single agents (FIG. 14). […] Both inhibit proliferation of these cells with increasing concentration.
Temsirolimus was provided in liquid form from the London Regional Cancer Program (LRCP) Pharmacy. COTI-219 was prepared as a 50 mM stock in DMSO, then diluted to 10 mM in DMSO followed by serial dilution water for addition to medium overlaying cells. Cells were incubated with temsirolimus in combination with COTI-219 for 4 days (in wells of 96 well plates) followed by analysis of live cell density using the fluorescent vital stain alamarBlue.
All data points are means±SEM (n=6). Error bars are, in every case, smaller than the size of the symbol.
Rapamycin was prepared by crushing and extracting a tablet (supplied from the LRCP Pharmacy) with DMSO, followed by centrifugation to remove particulate matter. COTI-219 was prepared as a 50 mM stock in DMSO, then diluted to 10 mM in DMSO followed by serial dilution water for addition to medium overlaying cells. […]

H1975 = test: CellTiter-Blue growth inhibition, single agents and combinations, H1975; type: cell-based; conditions: Homo sapiens, NCI-H1975; H1975, NSCLC, EGFR - MUT, 72 h; read-out: Mean IC50, single agent
Protocol: (§3) The stock concentration was further diluted to 1 mM and added to a drug plate. […] Following dilution, 2 μl of test agent was transferred to the corresponding wells of a cell-containing 96-well plate with 198 μl of growth media. Tarceva® (erlotinib) was supplied by LC Labs (Woburn, Mass.).
(§4) Viable cell numbers were quantified by the CellTiter-Blue® cell viability assay, which measures the conversion of the indicator dye (resazurin) to resorufin, an indicator of cell viability. Experiments were repeated at least twice with the same concentrations to determine growth inhibitory activity.
(§5) The CI, a numerical value calculated as described in equation A, also provides a quantitative measure of the extent of drug interaction. A CI of less than, equal to, and more than 1 indicates synergy, additivity, and antagonism, respectively. CI=(CAx/ICx,A)+(CB,x/ICx,B) Equation A: Where CA,x and CB,x, are the concentrations of drug A and drug B used in combination to achieve x % drug effect. ICx,A and ICx,B are the concentrations for single agents to achieve the same effect.

H292 = test: CellTiter-Blue growth inhibition, single agents and combinations, H292; type: cell-based; conditions: Homo sapiens, NCI-H292; H292, NSCLC, EGFR - WT, 72 h; read-out: Mean IC50, single agent
Protocol: as §3, §4, §5

HCT-15 = test: Tumor cell proliferation, single agents and combinations, HCT-15; type: cell-based; conditions: Homo sapiens; HCT-15, Colon, KRAS - MUT; read-out: Mean IC50, single agent
Protocol: (§6) The 3 cell lines were treated as follows:
(§7) Day 1: Cells were plated in 96-well flat bottom plates (VWR, Mississauga, ON, Canada) and allowed to adhere overnight.
(§8) All treated and control cells were, therefore, exposed to a 1% DMSO concentration plus the desired concentration of COTI-2.
as §5

SW620 = test: Tumor cell proliferation, single agents and combinations, SW620; type: cell-based, human; conditions: for IC50: Homo sapiens
Protocol: as §6, §7, §8, §5

COLO-205 = test: Tumor cell proliferation, single agents and combinations, COLO-205; type: cell-based, human; conditions: for IC50: Homo sapiens
Protocol: as §6, §7, §8, §5

SMILES: O=NN(CCCl)C(=O)NCCCl [BCNU, 1,3-Bis(2-chloroethyl)-1-nitrosourea, reference compound]
IC50 (SNB-19; Homo sapiens, SNB-19): 2250 nM | IC50 (U87; Homo sapiens, U-87 MG): 1520 nM

SMILES: N.N.[Cl][Pt][Cl] [Cisplatin, cis-diamminedichloroplatinum, reference compound]
average number of tumors per injection site [1]: 0.48 | mean tumor volume [1]: 132+/−26 mm^3 | IC50 (SNB-19; SNB-19, 4-7 days): 870 nM | emerging resistance: ratio of IC50 to IC50 of parental generation (DMS153): significant increases in IC50 | emerging resistance: ratio of IC50 to IC50 of parental generation (SHP77): significant increases in IC50 | IC50 (U87; U87, 4-7 days): 490 nM

nH (CYP2B6 [2]): 2.7 | IC50 (CYP2B6 [3]): 640 nM
SMILES: COC(=O)[C@H](c1ccccc1Cl)N1CCc2sccc2C1 [Clopidogrel]

SMILES: Nc1ccn([C@@H]2O[C@H](CO)[C@@H](O)C2(F)F)c(=O)n1 [Gemcitabine, reference compound]
effect of combination with COTI-2 on proliferation (SHP 77 cells): additive effect | effect of combination with COTI-2 on proliferation (DMS114 cells): additive effect

SMILES: O=c1cc(N2CCOCC2)oc2c(-c3ccccc3)cccc12 [LY294002, reference compound]
PIP3 detected in the presence of the PI3K-inhibitor [4]: approximately 14 pmol

SMILES: COc1ccc(NC(=S)N=Nc2c(O)[nH]c3c(Cl)cc(Cl)cc23)cc1 [NSC73306]
Mean Over NCI/DTP 60 cell line panel (LogGI50) [5]: −4.9

SMILES: Oc1[nH]c2ccccc2c1N=NC(=S)N1CCCCCC1 [NSC668496]
Mean Over NCI/DTP 60 cell line panel (LogGI50) [5]: −6.1

SMILES: C=CCNC(=S)N=Nc1c(O)n(CN2CCOCC2)c2ccc([N+](=O)[O-])cc12 [NSC716768]
Mean Over NCI/DTP 60 cell line panel (LogGI50) [5]: −4.7

IC50 (U87 glioblastoma cells): 9900 nM
SMILES: CO[C@H]1C[C@@H]2CC[C@@H](C)[C@@](O)(O2)C(=O)C(=O)N2CCCC[C@H]2C(=O)O[C@H]([C@H](C)C[C@@H]2CC[C@@H](O)[C@H](OC)C2)CC(=O)[C@H](C)/C=C(\C)[C@@H](O)[C@@H](OC)C(=O)[C@H](C)C[C@H](C)/C=C/C=C/C=C/1C [Rapamycin, rapamycin]

SMILES: C#Cc1cccc(Nc2ncnc3cc(OCCOC)c(OCCOC)cc23)c1 [Tarceva®, erlotinib]
survival of treated animals to study conclusion ([1]; 31 days): died before study conclusion | IC50 (H1975): > 100000 nM | IC50 (H292): 20 nM | IC50 (HCT-15): 5100 nM | IC50 (SW620; SW-620, 96 h, read-out: concentration to reduce growth by 50% (IC50), SW620, 4 day assessment): > 10000 nM | IC50 (SW620; SW-620, SW620, Colon, KRAS - MUT, read-out: Mean IC50, single agent): > 10000 nM | highest concentration that did not significantly affect growth (SW620; SW620): 5 µM | highest concentration that did not significantly affect growth (COLO-205; COLO 205): 10 µM | IC50 (COLO-205; 96 h, read-out: concentration to reduce growth by 50% (IC50), COLO-205, 4 day assessment): > 10000 nM | IC50 (COLO-205; COLO-205, Colon, KRAS - WT, read-out: Mean IC50, single agent): > 10000 nM

SMILES: CC(=O)O[C@@]12CO[C@@H]1C[C@H](O)[C@@]1(C)C(=O)[C@H](O)C3=C(C)[C@@H](OC(=O)[C@H](O)[C@@H](NC(=O)OC(C)(C)C)c4ccccc4)C[C@@](O)([C@@H](OC(=O)c4ccccc4)[C@H]21)C3(C)C [Taxotere®, docetaxel, reference compound]
average number of tumors per injection site [1]: 0.48 | mean tumor volume [1]: 183 mm^3 | emerging resistance: ratio of IC50 to IC50 of parental generation (DMS153): significant increases in IC50 | emerging resistance: ratio of IC50 to IC50 of parental generation (SHP77): significant increases in IC50

IC50 (U87 glioblastoma cells): 3600 nM
SMILES: CO[C@H]1C[C@@H]2CC[C@@H](C)[C@@](O)(O2)C(=O)C(=O)N2CCCC[C@H]2C(=O)O[C@H]([C@H](C)C[C@@H]2CC[C@@H](OC(=O)C(C)(CO)CO)[C@H](OC)C2)CC(=O)[C@H](C)/C=C(\C)[C@@H](O)[C@@H](OC)C(=O)[C@H](C)C[C@H](C)/C=C/C=C/C=C/1C [Temsirolimus, temsirolimus]

SMILES: CCC1=C[C@@H]2CN(C1)Cc1c([nH]c3ccccc13)[C@@](C(=O)OC)(c1cc3c(cc1OC)N(C)[C@H]1[C@@](O)(C(=O)OC)[C@H](OC(C)=O)[C@]4(CC)C=CCN5CC[C@]31[C@@H]54)C2 [Vinorelbine, reference compound]
effect of combination with COTI-2 on proliferation (SHP 77 cells): additive effect | effect of combination with COTI-2 on proliferation (DMS114 cells): additive effect
